Experimental data as given in patent publication US20110020925A1, “NEW MODULATING MOLECULES FOR AN IMPROVED REGULATED EXPRESSION SYSTEM” (BAYER SCHERING PHARMA AKTIENGESELLSCHAFT, priority 2007, published 2011).
Substitutions are numbered along the chain they refer to.

How the values were obtained:
[1] = tested on: IP-10; assay: MFP dose/response and plasmid re-injection with BRES-1/mIFN plasmid pGT26 in vivo, IP-10 ELISA; design: species or system C57BI/6 mice; conditions: MFP 0.0033 mg/kg i.p. days 7-10
Procedure: The inducible mIFN-γ expression plasmid pGT26 was injected and electroporated on day 0 into hind limb muscles of C57BI/6 mice. […] Bleeds were taken on day 88 and 200, respectively. Serum was assayed for the chemokine IP-10 by ELISA. The results are shown as the mean (n=5 animals per group).
In addition, a complete pharmacokinetic profile of the expression of the therapeutic molecule (TM) can be performed using an activator molecule (AM) to determine the AM dose/response, as well as the kinetics of induction of TM expression following AM administration. […] Blood was collected at days 11 post-injection, and serum samples were assayed for IP-10 (see “Experimental Design” below for details). […] By day 67 the level of IP-10 had decreased several-fold from the day 11 level, so the plasmid DNA was re-injected at day 77.
For safety studies in humans, a complete characterization of the rate at which the activator molecule (AM) and TM expression can be turned “off” following withdrawal of the AM can be performed. The frequency of AM dosing necessary to achieve steady state levels of the TM can be evaluated.
• DNA solutions: Each mouse received 250 ug of plasmid DNA in 150 ul PBS. • DNA delivery: Adult male C57BI/6 mice were injected bilaterally on day 0 with 250 ug plasmid DNA per mouse in 150 ul PBS. […]

[2] = molecular target: T1, V729L/W755A RP (pBRES) (Homo sapiens, UniProt P06401, V729L/W755A); assay: Induction of luciferase, mSEAP or hIFNb from pBRES with V729L/W755A RP in C2C12 cells; type: cell-based, mouse; conditions: every orientation, three transgenes
T1 construct: expressed in transfected cells; host or cells: C2C12 mouse muscle cells
T1 sequence (P06401 640-914 V729L/W755A): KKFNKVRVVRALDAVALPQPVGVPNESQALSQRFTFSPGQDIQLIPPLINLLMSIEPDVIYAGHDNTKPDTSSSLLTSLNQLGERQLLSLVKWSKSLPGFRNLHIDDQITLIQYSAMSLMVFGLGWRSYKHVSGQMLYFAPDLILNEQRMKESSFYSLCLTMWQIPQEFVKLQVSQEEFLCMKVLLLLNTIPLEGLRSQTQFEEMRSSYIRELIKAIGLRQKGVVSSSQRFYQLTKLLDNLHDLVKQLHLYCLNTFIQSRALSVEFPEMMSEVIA

[3] = molecular target: T2, original RP (pGT45) (Homo sapiens, UniProt P06401); assay: In vivo mSEAP serum level after inducer, mice with pGT45 (original RP); conditions: 0.33 mg/kg or 1 mg/kg i.p. days 7-10
T2 construct: expressed in transfected cells; host or cells: mouse hind limb muscle in vivo (plasmid injection plus electroporation)
T2 sequence (P06401 640-914): T1 sequence (P06401 640-914 V729L/W755A) with L90V, A116W
Procedure: Upon the conclusion of in vitro testing, the divergent orientation of mSEAP and RP in pGT45 and pGT1048 were tested side-by-side in a mouse study. Mice were injected with plasmid DNA in the hind limbs and electroporation was used to deliver the DNA into the muscle cells on day 0. […] Six hours after the last injection on day 10, samples of blood were collected from the tail veins of the mice. mSEAP levels in the serum were measured to determine the level of this reporter expression following induction with compounds. Additional blood samples were collected prior to injection of inducers on day 7, as well as on days 18 and 25 to monitor the drop off of mSEAP expression.

[4] = tested on: murine acute EAE model; assay: Mouse acute EAE model, clinical scoring; type: in vivo, SJL mice; conditions: for clinical scores of EAE, positive controls: i.p. twice daily, Mesopram 9 mg/kg, Prednisolone 2.5 mg/kg
[5] = molecular target: GAL-4 DBS; conditions: read-out: Kd for binding; cited from earlier work
[6] = tested on: IP-10; assay: IP-10 plasma level in mice (ELISA) after mIFN-β protein or gene delivery; type: in vivo, C57BI/6 mice
Procedure: (§1) FIG. 7 illustrates induction levels of IP-10 (A) and JE (B) following i.v. or i.m. injection of murine IFN-ÿ protein. C57BI/6 mice were administered 15, 150, or 500 ng of purified recombinant mIFN-ÿ protein (specific activity=2.0×108 units/mg) by either i.v. (via tail vein) or i.m. injection (n=3 mice per group). The mice were bled at 2, 4, 6, 12, 24, and 48 hours post-injection, and the plasma levels of IP-10 and JE were measured by ELISA (R&D Systems).
FIG. 8 illustrates the induction of IP-10 following intramuscular injection of AAV-1-mIFN-ÿ DNA or mIFN-ÿ plasmid DNA with electroporation (EP) in mice. Normal mice (C57BI/6) were injected i.m. with either AAV-1-mIFN-ÿ (5×10^9 viral particles), or mIFN-ÿ plasmid DNA (150 ug) with electroporation. Mice were bled at the indicated time points and IP-10 levels in plasma were determined by ELISA. Each column represents the mean value+/−the standard deviation (n=5 mice per group).
C. Chemokines IP-10 and JE: During the analysis of plasma samples from mice treated with mIFN-β protein, two murine chemokines, IP-10 and JE the murine homologue of MCP-1 (monocyte chemoattractant protein, see e.g., Yoshimura, T (1989) FEBS Lett 244: 487-93), were also identified to have a similar response and activation to mIFN-β as Mx1 RNA (FIGS. 7 and 8). […]
The plasma samples were also analyzed for IP-10 and JE (FIGS. 7 and 8). […]

[7] = tested on: Mx1 RNA; assay: Mx1 RNA induction in PBMCs of mice (quantitative RT-PCR) after mIFN-β protein or gene delivery; type: in vivo, C57BI/6 mice
Procedure: C57BI/6 mice were administered 15, 150, or 500 ng of purified recombinant mIFN-ÿ protein (specific activity-2.0×108 units/mg) by either i.v. (via tail vein) or i.m. injection (n=3 mice per group). At the specified time points post-injection mice were bled, and RNA was isolated from PBMCs. Mx1 RNA was measured by quantitative RT-PCR. The fold increase in Mx1 RNA is expressed relative to GAPDH values measured in the same samples. The controls include naive mice (N), and mice injected with the vehicle buffer only followed by Mx1 analysis at 2 hours (V2h) or 4h (V4h) post-injection. Each column represents the mean value+/−standard deviation.
A quantitative PCR/RT-PCR assay was developed to quantitate the levels of Mx1 mRNA in murine PBMC's. Specifically, peripheral blood mononuclear cells (PBMCs) were isolated from mice treated with either mIFN-β protein or following gene-based delivery of the mIFN-β gene. Blood samples obtained from treated mice were centrifuged on a ficoll cushion for 25 minutes at 2,000 rpm. […] The samples were analyzed with an Mx1-specific probe/primer combination. Mx1 expression was normalized to GAPDH expression measured in parallel using a standard assay from ABI.
B. Bolus Injection of mIFN-β Protein Induces Transient Biomarker Response In Vivo: The biomarker response after bolus injection of purified recombinant mIFN-β was measured in these studies.

[8] = tested on: Mx1 RNA; assay: Mx1 RNA induction in L929 cells (TaqMan RT-PCR); type: cell-based, murine
Procedure: FIG. 5 illustrates Mx1 RNA induction in vitro (in L929 cells) by mIFN-ÿ. L929 cells were seeded at 5×10^5 cells in 6 well plates and stimulated with increasing amounts of purified recombinant mIFN-ÿ protein. Four hours after treatment the cells were harvested, RNA isolated, and Mx1 RNA quantitated by TaqMan analysis. Mx1 RNA expression is plotted as the fold increase relative to GAPDH RNA.
A quantitative PCR/RT-PCR assay was developed to quantitate the levels of Mx1 mRNA in murine PBMC's. Specifically, peripheral blood mononuclear cells (PBMCs) were isolated from mice treated with either mIFN-β protein or following gene-based delivery of the mIFN-β gene. Blood samples obtained from treated mice were centrifuged on a ficoll cushion for 25 minutes at 2,000 rpm. Purified PBMCs were pelleted and RNA for the Mx1 assay was purified using the “RNAeasy” mini extraction kit from Qiagen. The RNA was stored in H2O at −80° C. Mx1 RT-PCR was performed using TaqMan® chemistry and analysis was done on the Applied Biosystems (ABI) PRISM® 7700 Sequence Detection instrument. For reverse transcription of the RNA and amplification of cDNA, the “One-step TaqMan® RNA” kit from ABI was used. […] The samples were analyzed with an Mx1-specific probe/primer combination. Mx1 expression was normalized to GAPDH expression measured in parallel using a standard assay from ABI. […]

[9] = Luciferase reporter gene assay for activity of purified mIFN-β protein; type: cell-based; conditions: commercial mIFN-β reference standard
Procedure: Specifically, the gene encoding mIFN-β was cloned into a pCEP4 expression vector (Invitrogen). The expression plasmid encoding mIFN-β was transiently transfected into 293E cells (Edge Biosystems) using X-tremeGene Ro-1539 Transfection Reagent (Roche). Murine IFN-β protein was purified from the medium by ion-exchange chromatography and by hydrophobic-interaction chromatography. The product was sialyzed and concentrated against dilution buffer (50 mM sodium acetate, pH 5.5, 150 mM sodium chloride, and 5% polypropylene glycol) and sterile filtered. Aliquots of the purified protein were stored at −80° C. The activity of the purified protein was assessed using a luciferase reporter gene assay (Hardy et al. (2001) Blood 97:473-482), using a commercial mIFN-β reference standard from Access Biomedical (San Diego, Calif.). The specific activity of the purified protein was 2×10^8 units/mg.

[10] = tested on: JE; assay: JE plasma level in mice (ELISA) after mIFN-β protein or gene delivery; type: in vivo, C57BI/6 mice; conditions: each of three doses, i.v. or i.m.
Procedure: as §1
C. Chemokines IP-10 and JE: During the analysis of plasma samples from mice treated with mIFN-β protein, two murine chemokines, IP-10 and JE the murine homologue of MCP-1 (monocyte chemoattractant protein, see e.g., Yoshimura, T (1989) FEBS Lett 244: 487-93), were also identified to have a similar response and activation to mIFN-β as Mx1 RNA (FIGS. 7 and 8). A strong induction of IP-10 and JE was seen 2 hours after administration of mIFN-β protein either i.v. or i.m. IP-10 levels increased 3000-fold at the high dose delivered i.v. With each of the three mIFN-β doses tested, a rapid drop to background in the plasma levels of IP-10 and JE was observed by 24 hours.

CC#C[C@]1(O)CC[C@H]2[C@@H]3CCC4=CC(=O)CCC4=C3[C@@H](c3ccc(N(C)C)cc3)C[C@@]21C [MFP, 11-(4-dimethylaminophenyl)-17-hydroxy-17c-propynyl-4,9-estradiene-3-one]
IP-10 levels at lowest MFP dose [1]: no increase over background IP-10 levels
activity of engineered RP when induced [2]: retained full activity
response (serum mSEAP) of mice to inducer [3]: responded well

CCCOc1cc([C@]2(C)CNC(=O)O2)ccc1OC [Mesopram]
clinical scores of EAE, positive controls ([4]; first study): significantly decreased clinical scores
clinical scores of EAE, positive controls ([4]; second study): significantly decreased clinical scores

C[C@]12C=CC(=O)C=C1CC[C@@H]1[C@@H]2[C@@H](O)C[C@@]2(C)[C@H]1CC[C@]2(O)C(=O)CO [Prednisolone]
clinical scores of EAE, positive controls ([4]; first study): significantly decreased clinical scores
clinical scores of EAE, positive controls ([4]; second study): significantly decreased clinical scores

GAL-4 residues 1-100: N-terminal DNA binding domain fragment of yeast GAL-4 protein
Kd [5]: 3 nM

mIFN-β: purified recombinant murine interferon-β protein expressed in 293E cells
time of drop to background of IP-10 plasma level ([6]; each of three doses, i.v. or i.m.): ≤ 24 h
increase of IP-10 levels ([6]; high dose delivered i.v.): 3000 fold
time of highest Mx1 expression levels after injection ([7]; bolus protein): 2 h
time after injection beyond which no Mx1 RNA levels above background were detected ([7]; bolus protein i.m.): 12 h
increase in the level of Mx1 RNA [8]: 100 fold
EC50 of Mx1 RNA induction ([8]; 4 hours treatment): approximately 50 pg/ml
specific activity of the purified protein [9]: 2×10^8 units/mg
clinical scores of EAE compared to vehicle treated mice ([4]; first study, 30,000 units s.c. every other day): did not reach statistical significance
clinical scores of EAE compared with vehicle treated mice ([4]; first study, 100,000 units s.c. every other day): significantly decreased clinical scores
clinical scores compared to the vehicle control treated mice ([4]; second study, 100,000 Units s.c. every other day): significantly decreased clinical scores
time of drop to background of JE plasma level [10]: ≤ 24 h
